Measured values reported in DBAASP.
Converted amounts (≈) assume the structure as drawn.

What was measured:
Test in all cases: ≥ marks a high value that may be exact or a test limit, other limits are often not marked, values filed in µg/mL are converted to µM
[1] = system: Streptococcus gordonii Challis DL1
[2] = system: Enterococcus faecalis
[3] = system: Streptococcus mitis ATCC 903
[4] = system: Streptococcus mutans UA159
[5] = system: Pseudomonas aeruginosa PAK
[6] = system: Staphylococcus aureus
[7] = system: Escherichia coli W3110
[8] = system: Streptococcus sanguinis NY101
[9] = system: Streptococcus sobrinus ATCC 33478
[10] = system: Micrococcus luteus ATCC 4698
[11] = system: Escherichia coli DH5alpha
[12] = system: Staphylococcus epidermidis ATCC 12228
[13] = system: Staphylococcus aureus ATCC 6538
[14] = system: Klebsiella oxytoca BCRC 13985
[15] = system: Staphylococcus aureus BCRC 10781
[16] = system: Vibrio parahaemolyticus
[17] = system: Streptococcus iniae
[18] = system: Escherichia coli BCRC 10675
[19] = system: Vibrio anguillarum serotype O1
[20] = system: Enterobacter cloacae BCRC 10401
[21] = system: Lactococcus garvieae
[22] = system: Vibrio harveyi
[23] = system: Klebsiella aerogenes BCRC 10370
[24] = system: Vibrio alginolyticus BCRC 12829
[25] = system: Staphylococcus aureus BCRC 10780
[26] = system: Listeria monocytogenes BCRC 14845
[27] = system: Yersinia enterocolitica BCRC 13999
[28] = system: Staphylococcus xylosus BCRC 12930
[29] = system: Vibrio alginolyticus
[30] = system: Pseudomonas aeruginosa BCRC 10944
[31] = system: Streptococcus equinus BCRC 14729
[32] = system: Vibrio parahaemolyticus BCRC 10806
[33] = system: Mannheimia haemolytica Serovar 2
[34] = system: Aspergillus fumigatus
[35] = system: Pseudomonas aeruginosa PAO1
[36] = system: Salmonella enterica subsp. arizonae
[37] = system: Klebsiella pneumoniae
[38] = system: Mannheimia haemolytica Serovar 1
[39] = system: Pasteurella multocida
[40] = system: Corynebacterium pseudotuberculosis ATCC 19410
[41] = system: Bibersteinia trehalosi
[42] = system: Mannheimia haemolytica Serovar 6

CC[C@H](C)[C@H](NC(=O)[C@H](Cc1ccccc1)NC(=O)[C@H](Cc1cnc[nH]1)NC(=O)[C@H](CCCCN)NC(=O)[C@@H](NC(=O)[C@@H](N)Cc1ccccc1)[C@@H](C)CC)C(=O)N[C@@H](Cc1cnc[nH]1)C(=O)N[C@@H](CCCN=C(N)N)C(=O)N[C@@H](Cc1ccccc1)C(N)=O [FIKHFIHRF]
MIC [1]: ≥ 402 µM
MIC [2]: ≥ 402 µM
MIC [3]: ≥ 402 µM
MIC [4]: ≥ 100 µM
MIC [5]: ≥ 402 µM
MIC [6]: > 402 µM
MIC [7]: ≥ 402 µM
MIC [8]: ≥ 100 µM
MIC [9]: ≥ 100 µM

CC(C)C[C@H](NC(=O)[C@H](CC(C)C)NC(=O)[C@H](CCCCN)NC(=O)[C@H](CO)NC(=O)[C@H](CC(C)C)NC(=O)[C@H](C)NC(=O)[C@H](CCCCN)NC(=O)[C@@H](NC(=O)[C@@H](NC(=O)[C@H](C)NC(=O)CNC(=O)[C@H](CC(C)C)NC(=O)[C@@H](N)Cc1ccccc1)C(C)C)C(C)C)C(=O)O [FLGAVVKALSKLL]
MIC [10]: 10.3 µM (≈ 14 µg/mL)
MIC [11]: ≥ 36.8 µM
MIC [12]: 29.4 µM (≈ 40 µg/mL)
MIC [13]: 19.1 µM (≈ 26 µg/mL)

CC(C)C[C@H](NC(=O)[C@H](CC(C)C)NC(=O)[C@H](CCCCN)NC(=O)[C@H](CO)NC(=O)[C@H](CC(C)C)NC(=O)[C@@H](NC(=O)[C@H](CCCCN)NC(=O)[C@H](Cc1ccccc1)NC(=O)[C@H](CC(C)C)NC(=O)[C@@H](NC(=O)CNC(=O)[C@H](CC(C)C)NC(=O)[C@@H](N)Cc1ccccc1)C(C)C)C(C)C)C(=O)O [FLGVLFKVLSKLL]
MIC [10]: 1.35 µM (≈ 2 µg/mL)
MIC [11]: ≥ 271 µM
MIC [12]: 5.42 µM (≈ 8 µg/mL)
MIC [13]: 2.03 µM (≈ 3 µg/mL)

CC[C@H](C)[C@H](NC(=O)[C@H](CCCCN)NC(=O)[C@H](CCCCN)NC(=O)[C@H](CC(C)C)NC(=O)[C@H](Cc1ccc(O)cc1)NC(=O)[C@H](CC(N)=O)NC(=O)[C@H](Cc1ccc(O)cc1)NC(=O)[C@@H](NC(=O)[C@@H](NC(=O)[C@H](CCCCN)NC(=O)[C@H](C)NC(=O)[C@H](Cc1ccc(O)cc1)NC(=O)[C@H](CCCCN)NC(=O)[C@H](C)NC(=O)CN)[C@@H](C)CC)[C@@H](C)CC)C(=O)N[C@@H](C)C(=O)N[C@@H](CC(N)=O)C(=O)N[C@@H](C)C(=O)N[C@@H](CC(C)C)C(=O)N[C@@H](Cc1c[nH]c2ccccc12)C(=O)O [GAKYAKIIYNYLKKIANALW]
MIC [14]: 13.7 µM (≈ 32 µg/mL)
MIC [15]: 6.83 µM (≈ 16 µg/mL)
MIC [16]: 6.83 µM (≈ 16 µg/mL)
MIC [17]: 27.3 µM (≈ 64 µg/mL)
MIC [18]: 27.3 µM (≈ 64 µg/mL)
MIC [19]: 27.3 µM (≈ 64 µg/mL)
MIC [20]: 6.83 µM (≈ 16 µg/mL)
MIC [21]: ≥ 54.7 µM
MIC [22]: 1.71 µM (≈ 4 µg/mL)
MIC [23]: 6.83 µM (≈ 16 µg/mL)
MIC [24]: 6.83 µM (≈ 16 µg/mL)
MIC [25]: 3.42 µM (≈ 8 µg/mL)
MIC [26]: 13.7 µM (≈ 32 µg/mL)
MIC [27]: ≥ 54.7 µM
MIC [28]: 6.83 µM (≈ 16 µg/mL)
MIC [29]: 6.83 µM (≈ 16 µg/mL)
MIC [30]: ≥ 54.7 µM
MIC [31]: 13.7 µM (≈ 32 µg/mL)
MIC [32]: 6.83 µM (≈ 16 µg/mL)

CC[C@H](C)[C@H](NC(=O)[C@H](Cc1ccccc1)NC(=O)[C@H](CCCCN)NC(=O)[C@H](CC(N)=O)NC(=O)[C@@H](NC(=O)[C@H](Cc1ccc(O)cc1)NC(=O)[C@@H](NC(=O)[C@H](Cc1ccc(O)cc1)NC(=O)[C@H](Cc1ccccc1)NC(=O)[C@H](CCCCN)NC(=O)[C@H](CCCCN)NC(=O)[C@H](C)NC(=O)[C@H](CC(C)C)NC(=O)[C@H](CC(N)=O)NC(=O)[C@H](C)NC(=O)CN)[C@@H](C)O)[C@@H](C)CC)C(=O)N[C@@H](CC(N)=O)C(=O)N[C@@H](Cc1ccc(O)cc1)C(=O)N[C@@H](C)C(=O)N[C@@H](Cc1c[nH]c2ccccc12)C(=O)O [GANLAKKFYTYINKFINYAW]
MIC [14]: ≥ 52.8 µM
MIC [15]: ≥ 52.8 µM
MIC [16]: 6.6 µM (≈ 16 µg/mL)
MIC [17]: ≥ 106 µM
MIC [18]: 26.4 µM (≈ 64 µg/mL)
MIC [19]: 13.2 µM (≈ 32 µg/mL)
MIC [20]: 26.4 µM (≈ 64 µg/mL)
MIC [21]: ≥ 106 µM
MIC [22]: 3.3 µM (≈ 8 µg/mL)
MIC [23]: 13.2 µM (≈ 32 µg/mL)
MIC [24]: ≥ 52.8 µM
MIC [25]: ≥ 52.8 µM
MIC [26]: ≥ 52.8 µM
MIC [27]: ≥ 52.8 µM
MIC [28]: 26.4 µM (≈ 64 µg/mL)
MIC [29]: 13.2 µM (≈ 32 µg/mL)
MIC [30]: ≥ 52.8 µM
MIC [31]: ≥ 106 µM
MIC [32]: ≥ 52.8 µM

CC[C@H](C)[C@H](NC(=O)[C@H](Cc1cnc[nH]1)NC(=O)[C@@H](NC(=O)[C@@H](NC(=O)[C@H](CCCCN)NC(=O)[C@H](CCCN=C(N)N)NC(=O)[C@@H](NC(=O)[C@@H](NC(=O)[C@@H](N)CCCN=C(N)N)[C@@H](C)CC)[C@@H](C)CC)[C@@H](C)CC)[C@@H](C)CC)C(=O)N[C@H](C(=O)N[C@@H](CCCCN)C(N)=O)[C@@H](C)CC [RIIRKIIHIIK]
MIC [33]: 7.13 µM (≈ 9.99 µg/mL)
MIC [34]: 28.5 µM (≈ 40 µg/mL)
MIC [35]: 3.56 µM (≈ 5 µg/mL)
MIC [36]: 14.3 µM (≈ 20 µg/mL)
MIC [6]: > 14.3 µM
MIC [37]: 9.48 µM (≈ 13.3 µg/mL)
MIC [38]: 14.3 µM (≈ 20 µg/mL)
MIC [39]: 14.3 µM (≈ 20 µg/mL)
MIC [40]: 14.3 µM (≈ 20 µg/mL)
MIC [41]: 14.3 µM (≈ 20 µg/mL)
MIC [42]: 7.13 µM (≈ 9.99 µg/mL)

CC[C@H](C)[C@H](NC(=O)[C@@H](NC(=O)[C@H](Cc1cnc[nH]1)NC(=O)[C@@H](NC(=O)[C@@H](NC(=O)[C@H](CCCCN)NC(=O)[C@H](CCCN=C(N)N)NC(=O)[C@@H](NC(=O)[C@@H](NC(=O)[C@@H](N)CCCN=C(N)N)[C@@H](C)CC)[C@@H](C)CC)[C@@H](C)CC)[C@@H](C)CC)[C@@H](C)CC)C(N)=O [RIIRKIIHII]
MIC [33]: 10.4 µM (≈ 13.3 µg/mL)
MIC [34]: 31.4 µM (≈ 40 µg/mL)
MIC [35]: 7.85 µM (≈ 9.99 µg/mL)
MIC [36]: 15.7 µM (≈ 20 µg/mL)
MIC [6]: > 15.7 µM
MIC [37]: 9.18 µM (≈ 11.7 µg/mL)
MIC [38]: 15.7 µM (≈ 20 µg/mL)
MIC [39]: 15.7 µM (≈ 20 µg/mL)
MIC [40]: 15.7 µM (≈ 20 µg/mL)
MIC [41]: 15.7 µM (≈ 20 µg/mL)
MIC [42]: 15.7 µM (≈ 20 µg/mL)

NC(=O)CC[C@H](NC(=O)[C@H](Cc1c[nH]c2ccccc12)NC(=O)[C@H](Cc1c[nH]c2ccccc12)NC(=O)[C@H](CC(N)=O)NC(=O)[C@H](Cc1ccc(O)cc1)NC(=O)[C@H](Cc1c[nH]c2ccccc12)NC(=O)[C@@H](N)Cc1c[nH]c2ccccc12)C(=O)N[C@@H](CC(=O)O)C(=O)N[C@@H](Cc1c[nH]c2ccccc12)C(N)=O [WWYNWWQDW]
MIC [1]: ≥ 340 µM
MIC [2]: ≥ 340 µM
MIC [3]: ≥ 340 µM
MIC [4]: ≥ 340 µM
MIC [5]: ≥ 340 µM
MIC [6]: > 340 µM
MIC [7]: ≥ 340 µM
MIC [8]: ≥ 340 µM
MIC [9]: ≥ 340 µM
